In US20250066291A1, “TARGETED COVALENT INHIBITORS FOR CARBONIC ANHYDRASES” (VILNIUS UNIVERSITY, priority 2023, published 2025):

What was measured:
CAIII = CAIII (Homo sapiens, UniProt P07451); assay: Mass spectrometry (Q-TOF) of covalent modification of CAIII; format: binding; details: CAIII in the presence of ligand
CAIX [1] = target: T1, CAIX (Homo sapiens, UniProt Q16790); assay: Isothermal titration calorimetry (ITC) binding to CAIX; details: pH 7.0, TRIS chloride buffer, 37° C., FIG. 1D
Description: A—Raw data of CAIX unfolding in the presence of different compound concentrations. B—dependence of CAIX melting temperature Tm on ligand concentration. […] C—raw ITC curve at pH 7.0, TRIS chloride buffer, at 37° C. D—Integrated ITC curve.

CAIX [2] = target: T1, CAIX; assay: Stopped-flow CO2 hydration, CAIX activity before and after dialysis; format: biochemical; details: for CAIX catalytic activity after 32 hours of dialysis: […] CAIX incubated 2 h with 15 μM AV19-37 or 100 μM AV19-36, dialyzed in Tris buffer pH 7
Description: A—CAIX incubated for 2 hours with compounds and the CO2 hydration was measured. B—CAIX was incubated for 2 hours with the compound and then the complex was dialyzed for 32 hours in Tris buffer (pH 7.0). Black curves represent CAIX catalyzed CO2 hydration reaction. Grey curves are spontaneous CO2 hydration without the CA enzyme.
CO2 hydration velocities were measured by recording absorbance of phenol red (final concentration 50 μM) at 557 nm by using Applied Photophysics SX.18 MV-R stopped-flow spectrometer.

Chain of CAIII (P07451 whole entry): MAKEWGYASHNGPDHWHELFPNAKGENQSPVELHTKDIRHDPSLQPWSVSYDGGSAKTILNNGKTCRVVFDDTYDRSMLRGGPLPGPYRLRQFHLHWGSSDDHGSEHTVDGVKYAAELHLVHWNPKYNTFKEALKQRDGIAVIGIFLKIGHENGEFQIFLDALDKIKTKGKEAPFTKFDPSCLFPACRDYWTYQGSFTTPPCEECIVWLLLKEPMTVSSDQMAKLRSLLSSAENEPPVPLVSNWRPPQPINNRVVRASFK

Row | SMILES | covalent modification by MS (CAIII) | compound binding stoichiometry (CAIX [1]) | CAIX catalytic activity after 32 hours of dialysis (CAIX [2]) | CAIX catalytic activity after 2 hours of incubation with compound (CAIX [2]; […] CAIX, 15 μM compound, CO2 hydration, 25° C., pH 7.5)
1 | CC(=O)OCCS(=O)(=O)c1c(F)c(F)c(S(N)(=O)=O)c(F)c1NC1CCCCCCC1 [AV19-37, 2-((2-(cyclooctylamino)-3,5,6-trifluoro-4-sulfamoylphenyl)sulfonyl)ethyl acetate] | did not show a covalent modification | ~1 | not restored | lost its catalytic activity
2 | CC(=O)OCCSc1c(F)c(F)c(S(N)(=O)=O)c(F)c1F [AV19-36, 2-((2,3,5,6-tetrafluoro-4-sulfamoylphenyl)thio)ethyl acetate] | – | – | partially restored its catalytic activity | –
